Structures can show the parent of a compound that is named as a salt.
Molecular target: T1, human IRAK4 kinase domain (aa 154-460) (Homo sapiens, UniProt Q9NWZ3)
T1 construct: human IRAK4 kinase domain (aa 154-460; GenBank ID AF445802)
T1 sequence (Q9NWZ3 154-460): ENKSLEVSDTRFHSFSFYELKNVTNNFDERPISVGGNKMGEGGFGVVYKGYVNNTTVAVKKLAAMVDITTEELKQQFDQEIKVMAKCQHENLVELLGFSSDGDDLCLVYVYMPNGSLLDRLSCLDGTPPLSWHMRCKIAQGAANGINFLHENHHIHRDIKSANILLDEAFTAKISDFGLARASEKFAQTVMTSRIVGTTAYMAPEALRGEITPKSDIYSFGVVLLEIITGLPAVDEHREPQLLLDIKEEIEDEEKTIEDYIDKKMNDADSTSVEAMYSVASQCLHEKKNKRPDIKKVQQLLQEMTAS
Experiment: IRAK4 Enzymatic DELFIA Assay
Assay type: biochemical
Conditions: 0.6 mM ATP (KM); 114 pM IRAK4 kinase domain; 200 nM substrate; 5% DMSO
Protocol: IRAK4 Enzymatic DELFIA Assay.
This is an in vitro assay to measure IRAK4 enzymatic activity utilizing the DELFIA (Dissociation-Enhanced Lanthanide Fluorescent Immunoassay, Perkin-Elmer) platform, with the human IRAK4 kinase domain (aa 154-460) construct to characterize IRAK4 inhibitor and control compounds at 0.6 mM ATP (KM). The final amount of enzyme in the assay is 114 pM IRAK4 kinase domain, final concentration of substrate is 200 nM, and final concentration of DMSO is 5%.
The test compound was solubilized in DMSO to a stock concentration of 30 mM. The dose response plates were prepared with a 2 mM primary compound concentration, and then diluted in DMSO in a four-fold series for a total of 10 data points. Compounds were prepared as a 20-fold multiple of the final in-assay concentration
To begin the assay, 45 μL of reaction mixture containing 20 mM HEPES pH=7.5, 5 mM MgCl2, 0.0025% Brij-35, […], 228 pM phosphorylated recombinant human IRAK4 kinase domain (aa 154-460; GenBank ID AF445802) were aliquoted into Ultra-Clear Polypropylene, 96-well, U-Bottom Plates (Corning Life Sciences). 5 μL of test compound from the dose-response plate was added to the reaction mixture and incubated for 15 minutes at room temperature. Then 50 μL of 20 mM HEPES pH=7.5, 5 mM MgCl2, 0.0025% Brij-35, 600 μM ATP, and 400 nM ERM-biotinylated peptide (AGAGRDKYKTLRQIR) were added to start the reaction. The reaction was incubated for 90 minutes at room temperature and stopped by the addition of 25 μL 0.5M EDTA.
100 μL of the reaction mixture was transferred to a streptavidin coated detection plate (EvenCoat Streptavidin Coated Plates, 96-Well, R&D Systems) and incubated for 30 minutes at room temperature. The plates were washed 4 times with 100 μL per well of PBS containing 0.05% Tween-20. Plates were then incubated with 50 μL per well of antibody cocktail of Anti-pERM antibody (Cell Signaling Technology) diluted 1:5000, plus Anti-Rabbit IgG EuN1 at 0.242 μg/ml (Perkin-Elmer Life Sciences) in a solution of 10 mM MOPS pH=7.5, 150 mM NaCl, 0.05% Tween-20, 0.02% NaN3, 1% BSA, 0.1% Gelatin for 45 minutes. The plates were washed 4× with 100 μL per well of PBS containing 0.05% Tween-20. Then 100 μL per well of DELFIA Enhancement Solution were added to the plate and then read on an EnVision Model 2103 using a 340 nm excitation wavelength and a 665 nm emission detection.

SMILES	IC50 [nM]
CC(C)Oc1cc2c(O[C@@H]3CCCN(C(=O)C(C)(N)CO)C3)ccnc2cc1C(N)=O (mixture of isomers) [Example 12, Racemic-4-{[(3R)-1-(2-amino-3-hydroxy-2-methylpropanoyl)piperidin-3-yl]oxy}-6-(propan-2-yloxy)quinoline-7-carboxamide formate]	626
CC(C)Oc1cc2c(O[C@@H]3CCCN(C(=O)C(C)C#N)C3)ccnc2cc1C(N)=O (mixture of isomers) [Example 34, 4-{[(3R)-1-(2-cyanopropanoyl)piperidin-3-yl]oxy}-6-(propan-2-yloxy)quinoline-7-carboxamide]	926
CC(C)Oc1cc2c(O[C@H]3CCN(C(=O)CC#N)C3)nccc2cc1C(N)=O [Example 1, 1-{[(3S)-1-(cyanoacetyl)pyrrolidin-3-yl]oxy}-7-(propan-2-yloxy)isoquinoline-6-carboxamide formate]	53
CC(C)Oc1cc2c(O[C@@H]3CCN(C(=O)CC#N)C3)nccc2cc1C(N)=O [Example 2, 1-{[(3R)-1-(cyanoacetyl)pyrrolidin-3-yl]oxy}-7-(propan-2-yloxy)isoquinoline-6-carboxamide formate]	66
CC(C)Oc1cc2c(O[C@H]3CCN(C(=O)CC#N)C[C@H]3F)nccc2cc1C(N)=O [Example 3, 1-{[(3R,4S)-1-(cyanoacetyl)-3-fluoropiperidin-4-yl]oxy}-7-(propan-2-yloxy)isoquinoline-6-carboxamide formate]	308
CC(C)Oc1cc2c(O[C@@H]3CCCN(C(=O)CO)C3)ccnc2cc1C(N)=O [Example 4, 4-{[(3R)-1-(hydroxyacetyl)piperidin-3-yl]oxy}-6-(propan-2-yloxy)quinoline-7-carboxamide formate]	13
CC(C)Oc1cc2c(O[C@@H]3CCCN(C(=O)C(F)F)C3)ccnc2cc1C(N)=O [Example 5, 4-{[(3R)-1-(difluoroacetyl)piperidin-3-yl]oxy}-6-(propan-2-yloxy)quinoline-7-carboxamide formate]	35
CC(C)Oc1cc2c(O[C@@H]3CCCN(C(=O)CN)C3)ccnc2cc1C(N)=O [Example 6, 4-{[(3R)-1-glycylpiperidin-3-yl]oxy}-6-(propan-2-yloxy)quinoline-7-carboxamide formate]	348
CC(C)Oc1cc2c(O[C@@H]3CCCN(C(=O)[C@H](C)N)C3)ccnc2cc1C(N)=O [Example 7, 4-{[(3R)-1-(L-alanyl)piperidin-3-yl]oxy}-6-(propan-2-yloxy)quinoline-7-carboxamide formate]	143
COCC(=O)N1CCC[C@@H](Oc2ccnc3cc(C(N)=O)c(OC(C)C)cc23)C1 [Example 8, 4-{[(3R)-1-(methoxyacetyl)piperidin-3-yl]oxy}-6-(propan-2-yloxy)quinoline-7-carboxamide formate]	168
CC(C)Oc1cc2c(O[C@@H]3CCCN(C(=O)C(F)(F)F)C3)ccnc2cc1C(N)=O [Example 9, 6-(propan-2-yloxy)-4-{[(3R)-1-(trifluoroacetyl)piperidin-3-yl]oxy}quinoline-7-carboxamide formate]	263
CCC(=O)N1CCC[C@@H](Oc2ccnc3cc(C(N)=O)c(OC(C)C)cc23)C1 [Example 10, 4-{[(3R)-1-propanoylpiperidin-3-yl]oxy}-6-(propan-2-yloxy)quinoline-7-carboxamide formate]	506
CC(C)Oc1cc2c(O[C@@H]3CCCN(C(=O)c4cnco4)C3)ccnc2cc1C(N)=O [Example 11, 4-{[(3R)-1-(1,3-oxazol-5-ylcarbonyl)piperidin-3-yl]oxy}-6-(propan-2-yloxy)quinoline-7-carboxamide formate]	560
CC(C)Oc1cc2c(O[C@@H]3CCCN(C(=O)[C@H](C)O)C3)ccnc2cc1C(N)=O [Example 13, 4-({(3R)-1-[(2S)-2-hydroxypropanoyljpiperidin-3-yl}oxy)-6-(propan-2-yloxy)quinoline-7-carboxamide formate]	751
CC(C)Oc1cc2c(O[C@@H]3CCCN(C(=O)c4c[nH]cn4)C3)ccnc2cc1C(N)=O [Example 14, 4-{[(3R)-1-(1H-imidazol-4-ylcarbonyl)piperidin-3-yl]oxy}-6-(propan-2-yloxy)quinoline-7-carboxamide formate]	856
CC(C)Oc1cc2c(O[C@@H]3CCCN(C(=O)C4(CN)CC4)C3)ccnc2cc1C(N)=O [Example 15, 4-{[(3R)-1-{[1-(aminomethyl)cyclopropyl]carbonyl}piperidin-3-yl]oxy}-6-(propan-2-yloxy)quinoline-7-carboxamide formate]	999
CC(C)Oc1cc2c(O[C@@H]3C[C@@H](C)N(C(=O)CC#N)C3)ccnc2cc1C(N)=O [Example 16, 4-{[(3R,5R)-1-(cyanoacetyl)-5-methylpyrrolidin-3-yl]oxy}-6-(propan-2-yloxy)quinoline-7-carboxamide formate]	110
CC(C)Oc1cc2c(O[C@H]3CCN(C(=O)CC#N)[C@@H]3C)ccnc2cc1C(N)=O [Example 17, 4-{[(2R,3S)-1-(cyanoacetyl)-2-methylpyrrolidin-3-yl]oxy}-6-(propan-2-yloxy)quinoline-7-carboxamide formate]	111
CC(C)Oc1cc2c(O[C@H]3CCN(C(=O)CC#N)C[C@H]3F)ccnc2cc1C(N)=O [Example 18, 4-{[(3R,4S)-1-(cyanoacetyl)-3-fluoropiperidin-4-yl]oxy}-6-(propan-2-yloxy)quinoline-7-carboxamide formate]	660
CC(C)Oc1cc2c(O[C@@H]3CCNC[C@H]3F)nccc2cc1C(N)=O [Example 19, 1-{[(3R,4R)-3-fluoropiperidin-4-yl]oxy}-7-(propan-2-yloxy)isoquinoline-6-carboxamide]	39
CC(C)Oc1cc2c(O[C@@H]3CCNC[C@@H]3F)ccnc2cc1C(N)=O [Example 20, 1-{[(3S.4R)-3-fluoropiperidin-4-yl]oxy}-7-(propan-2-yloxy)isoquinoline-6-carboxamide]	150
CC(C)Oc1cc2c(OC3CCNC3=O)nccc2cc1C(N)=O (stereo not shown) [Example 21, 1-[(2-oxopyrrolidin-3-yl)oxy]-7-(propan-2-yloxy)isoquinoline-6-carboxamide]	602
COc1cc2c(O[C@@H]3CCCNC3)ccnc2cc1C(N)=O [Example 22, 6-methoxy-4-[(3R)-piperidin-3-yloxy]quinoline-7-carboxamide hydrochloride]	428
NC(=O)c1cc2nccc(O[C@@H]3CCCNC3)c2cc1OC1CCC1 [Example 23, 6-(cyclobutyloxy)-4-[(3R)-piperidin-3-yloxy]quinoline-7-carboxamide]	151
CC(C)Oc1cc2c(OC3CCNC3)ccnc2cc1C(N)=O (stereo not shown) [Example 24, 6-(propan-2-yloxy)-4-(pyrrolidin-3-yloxy)quinoline-7-carboxamide]	611
CC(C)Oc1cc2c(OC3CCNCC3)ccnc2cc1C(N)=O [Example 25, 4-(piperidin-4-yloxy)-6-(propan-2-yloxy)quinoline-7-carboxamide]	184
CC(C)Oc1cc2c(O[C@H]3CCNC3)ccnc2cc1C(N)=O [Example 26, 6-(propan-2-yloxy)-4-[(3S)-pyrrolidin-3-yloxy]quinoline-7-carboxamide formate]	950
CC(C)Oc1cc2c(OC3CCNC3=O)ccnc2cc1C(N)=O (stereo not shown) [Example 27, 4-[(2-oxopyrrolidin-3-yl)oxy]-6-(propan-2-yloxy)quinoline-7-carboxamide]	642
